Measured values: patent US9040458B2, “Safening composition of 6-(trisubstituded phenyl)-4-amino-2-pyridinecarboxylate herbicides and cloquintocet-mexyl for cereal crops” (Dow AgroSciences LLC, priority 2008, dated 2015)

Columns and labels:
Experiment in all cases: Postemergence herbicidal activity, greenhouse, visual injury
Settings in all cases: 20-22 d
[1] = system: MATCH = Matricaria chamomila (scented mayweed); format: in vivo
Procedure: (§1) Seeds of the desired test plant species were planted in Sun Gro MetroMix® 306 planting mixture, which typically has a pH of 6.0 to 6.8 and an organic matter content of about 30 percent, in plastic pots with a surface area of 103.2 square centimeters (cm^2). When required to ensure good germination and healthy plants, a fungicide treatment and/or other chemical or physical treatment was applied. The plants were grown for 7-36 days (d) in a greenhouse with an approximate […] photoperiod which was maintained at about 18° C. during the day and 17° C. during the night. Nutrients and water were added on a regular basis and supplemental lighting was provided with overhead metal halide 1000-Watt lamps as necessary. The plants were employed for testing when they reached the second or third true leaf stage.
(§2) Weighed amounts of esters (methyl) or salts (TEA [triethylammonium], potassium [K]) of 4-amino-3-chloro-6-(4-chloro-2-fluoro-3-methoxyphenyl)pyridine-2-carboxylic acid (Compound 1) were dissolved in a volume of 97:3 volume/volume (v/v) acetone/dimethylsulfoxide (DMSO) to obtain stock solutions. […] The concentrated stock solutions were diluted with an aqueous mixture of 1.5% v/v of Agri-dex crop oil concentrate to provide the appropriate application rates. Compound requirements are based upon a 12 mL application volume at a rate of 187 liters per hectare (L/ha). Stocks solutions of the safeners were prepared following the same procedure. Spray solutions of the safeners and experimental compound mixtures were prepared by adding the appropriate volume of both stock solutions to the appropriate amount of dilution solution to form a 12 mL spray solution with active ingredients in two-way combinations. Formulated compounds were applied to the plant material with an overhead Mandel track sprayer equipped with 8002E nozzles calibrated to deliver 187 L/ha over an application area of 0.503 square meters (m^2) at a spray height of 18 inches (43 centimeters (cm)) above average plant canopy. Control plants were sprayed in the same manner with the solvent blank.
(§3) The treated plants and control plants were placed in a greenhouse as described above and watered by sub-irrigation to prevent wash-off of the test compounds. After 20-22 d, the condition of the test plants as compared with that of the control plants was determined visually and scored on a scale of 0 to 100 percent where 0 corresponds to no injury and 100 corresponds to complete kill.
(§4) Colby's equation was used to determine the herbicidal effects expected from the mixtures (Colby, S. R., Calculation of the synergistic and antagonistic response of herbicide combinations. Weeds 1967, 15, 20-22.).
(§5) The following equation was used to calculate the expected activity of mixtures containing two active ingredients, A and B: Expected=A+B−(A×B/100)
(§6) A=observed efficacy of active ingredient A at the same concentration as used in the mixture.
(§7) B=observed efficacy of active ingredient B at the same concentration as used in the mixture.

[2] = system: GALAP = Galium aparine (cleavers); format: in vivo
Procedure: as §1, §2, §3, §4, §5, §6, §7

[3] = system: KCHSC = Kochia scoparia (kochia); format: in vivo
Procedure: as §1, §2, §3, §4, §5, §6, §7

[4] = system: SASKR = Salsola iberica (Russian thistle); format: in vivo
Procedure: as §1, §2, §3, §4, §5, §6, §7

[5] = system: VIOTR = Viola tricolor (wild pansy); format: in vivo
Procedure: as §1, §2, §3, §4, §5, §6, §7

[6] = system: STEME = Stellaria media (common chickweed); format: in vivo
Procedure: as §1, §2, §3, §4, §5, §6, §7

[7] = system: VERPE = Veronica persica (bird's-eye speedwell); format: in vivo
Procedure: as §1, §2, §3, §4, §5, §6, §7

[8] = system: LAMPU (purple deadnettle); format: in vivo, Lamium purpureum
Procedure: as §1, §2, §3, §4, §5, §6, §7

POLCO (wild buckwheat) = format: in vivo, Polygonum convolvulus
Procedure: as §1, §2, §3, §4, §5, §6, §7

PAPRH (corn poppy) = format: in vivo, Papaver rhoeas
Procedure: as §1, §2, §3, §4, §5, §6, §7

CCCCCC(C)OC(=O)COc1ccc(Cl)c2cccnc12 (stereo not shown) [Cloquintocet-mexyl, cloquintocet-mexyl]
0%: MATCH Ob (observed injury) ([1]; applied alone at 1.0937 g/ha) | MATCH Ob (observed injury) ([1]; applied alone at 1.1 g/ha) | MATCH Ob (observed injury) ([1]; applied alone at 2.1875 g/ha) | MATCH Ob (observed injury) ([1]; applied alone at 2.2 g/ha) | MATCH Ob (observed injury) ([1]; applied alone at 4.375 g/ha) | MATCH Ob (observed injury) ([1]; applied alone at 4.4 g/ha) | MATCH Ob (observed injury) ([1]; applied alone at 8.75 g/ha) | MATCH Ob (observed injury) ([1]; applied alone at 17.5 g/ha) | MATCH Ob (observed injury) ([1]; applied alone at 35 g/ha) | MATCH Ob (observed injury) ([1]; applied alone at 70 g/ha) | GALAP Ob (observed injury) ([2]; applied alone at 1.1 g/ha) | GALAP Ob (observed injury) ([2]; applied alone at 2.2 g/ha) | GALAP Ob (observed injury) ([2]; applied alone at 4.4 g/ha) | GALAP Ob (observed injury) ([2]; applied alone at 8.75 g/ha) | GALAP Ob (observed injury) ([2]; applied alone at 17.5 g/ha) | GALAP Ob (observed injury) ([2]; applied alone at 35 g/ha) | GALAP Ob (observed injury) ([2]; applied alone at 70 g/ha) | KCHSC Ob (observed injury) ([3]; applied alone at 1.0937 g/ha) | KCHSC Ob (observed injury) ([3]; applied alone at 1.1 g/ha) | KCHSC Ob (observed injury) ([3]; applied alone at 2.1875 g/ha) | KCHSC Ob (observed injury) ([3]; applied alone at 2.2 g/ha) | KCHSC Ob (observed injury) ([3]; applied alone at 4.375 g/ha) | KCHSC Ob (observed injury) ([3]; applied alone at 4.4 g/ha) | KCHSC Ob (observed injury) ([3]; applied alone at 8.75 g/ha) | KCHSC Ob (observed injury) ([3]; applied alone at 17.5 g/ha) | KCHSC Ob (observed injury) ([3]; applied alone at 35 g/ha) | KCHSC Ob (observed injury) ([3]; applied alone at 70 g/ha) | SASKR Ob (observed injury) ([4]; applied alone at 1.0937 g/ha) | SASKR Ob (observed injury) ([4]; applied alone at 1.1 g/ha) | SASKR Ob (observed injury) ([4]; applied alone at 2.1875 g/ha) | SASKR Ob (observed injury) ([4]; applied alone at 2.2 g/ha) | SASKR Ob (observed injury) ([4]; applied alone at 4.375 g/ha) | SASKR Ob (observed injury) ([4]; applied alone at 4.4 g/ha) | SASKR Ob (observed injury) ([4]; applied alone at 8.75 g/ha) | SASKR Ob (observed injury) ([4]; applied alone at 17.5 g/ha) | SASKR Ob (observed injury) ([4]; applied alone at 35 g/ha) | SASKR Ob (observed injury) ([4]; applied alone at 70 g/ha) | VIOTR Ob (observed injury) ([5]; applied alone at 1.0937 g/ha) | VIOTR Ob (observed injury) ([5]; applied alone at 1.1 g/ha) | VIOTR Ob (observed injury) ([5]; applied alone at 2.1875 g/ha) | VIOTR Ob (observed injury) ([5]; applied alone at 2.2 g/ha) | VIOTR Ob (observed injury) ([5]; applied alone at 4.375 g/ha) | VIOTR Ob (observed injury) ([5]; applied alone at 4.4 g/ha) | VIOTR Ob (observed injury) ([5]; applied alone at 8.75 g/ha) | VIOTR Ob (observed injury) ([5]; applied alone at 17.5 g/ha) | VIOTR Ob (observed injury) ([5]; applied alone at 35 g/ha) | VIOTR Ob (observed injury) ([5]; applied alone at 70 g/ha) | STEME Ob (observed injury) ([6]; applied alone at 1.1 g/ha) | STEME Ob (observed injury) ([6]; applied alone at 2.2 g/ha) | STEME Ob (observed injury) ([6]; applied alone at 4.4 g/ha) | STEME Ob (observed injury) ([6]; applied alone at 8.75 g/ha) | STEME Ob (observed injury) ([6]; applied alone at 17.5 g/ha) | STEME Ob (observed injury) ([6]; applied alone at 35 g/ha) | STEME Ob (observed injury) ([6]; applied alone at 70 g/ha) | VERPE Ob (observed injury) ([7]; applied alone at 1.0937 g/ha) | VERPE Ob (observed injury) ([7]; applied alone at 1.1 g/ha) | VERPE Ob (observed injury) ([7]; applied alone at 2.1875 g/ha) | VERPE Ob (observed injury) ([7]; applied alone at 2.2 g/ha) | VERPE Ob (observed injury) ([7]; applied alone at 4.375 g/ha) | VERPE Ob (observed injury) ([7]; applied alone at 4.4 g/ha) | VERPE Ob (observed injury) ([7]; applied alone at 8.75 g/ha) | VERPE Ob (observed injury) ([7]; applied alone at 17.5 g/ha) | VERPE Ob (observed injury) ([7]; applied alone at 35 g/ha) | VERPE Ob (observed injury) ([7]; applied alone at 70 g/ha) | LAMPU Ob (observed injury) ([8]; applied alone at 1.1 g/ha) | LAMPU Ob (observed injury) ([8]; applied alone at 2.2 g/ha) | LAMPU Ob (observed injury) ([8]; applied alone at 4.4 g/ha) | LAMPU Ob (observed injury) ([8]; applied alone at 8.75 g/ha) | LAMPU Ob (observed injury) ([8]; applied alone at 17.5 g/ha) | LAMPU Ob (observed injury) ([8]; applied alone at 35 g/ha) | LAMPU Ob (observed injury) ([8]; applied alone at 70 g/ha) | POLCO Ob (observed injury) (POLCO (wild buckwheat); applied alone at 1.1 g/ha) | POLCO Ob (observed injury) (POLCO (wild buckwheat); applied alone at 2.2 g/ha) | POLCO Ob (observed injury) (POLCO (wild buckwheat); applied alone at 4.4 g/ha) | POLCO Ob (observed injury) (POLCO (wild buckwheat); applied alone at 8.75 g/ha) | POLCO Ob (observed injury) (POLCO (wild buckwheat); applied alone at 17.5 g/ha) | POLCO Ob (observed injury) (POLCO (wild buckwheat); applied alone at 35 g/ha) | POLCO Ob (observed injury) (POLCO (wild buckwheat); applied alone at 70 g/ha) | PAPRH Ob (observed injury) (PAPRH (corn poppy); applied alone at 1.1 g/ha) | PAPRH Ob (observed injury) (PAPRH (corn poppy); applied alone at 2.2 g/ha) | PAPRH Ob (observed injury) (PAPRH (corn poppy); applied alone at 4.4 g/ha) | PAPRH Ob (observed injury) (PAPRH (corn poppy); applied alone at 8.75 g/ha) | PAPRH Ob (observed injury) (PAPRH (corn poppy); applied alone at 17.5 g/ha) | PAPRH Ob (observed injury) (PAPRH (corn poppy); applied alone at 35 g/ha) | PAPRH Ob (observed injury) (PAPRH (corn poppy); applied alone at 70 g/ha)
